From patent US20100137305A1, “AMINOPYRIMIDINES USEFUL AS KINASE INHIBITORS” (VERTEX PHARMACEUTICALS INCORPORATED, priority 2008, published 2010)
Like-named read-outs stand apart in the source and are kept apart here.

How the values were obtained:
Aurora-2 (Aurora A) = biological target: T1, Aurora-2 (Aurora A) (Homo sapiens, UniProt O14965); experiment: Aurora-2 (Aurora A) Inhibition Assay, coupled enzyme assay; format: biochemical; conditions: 400 μM ATP, 30° C.; read-out: Aurora A kinase activity Ki
T1 sequence (O14965 1-403): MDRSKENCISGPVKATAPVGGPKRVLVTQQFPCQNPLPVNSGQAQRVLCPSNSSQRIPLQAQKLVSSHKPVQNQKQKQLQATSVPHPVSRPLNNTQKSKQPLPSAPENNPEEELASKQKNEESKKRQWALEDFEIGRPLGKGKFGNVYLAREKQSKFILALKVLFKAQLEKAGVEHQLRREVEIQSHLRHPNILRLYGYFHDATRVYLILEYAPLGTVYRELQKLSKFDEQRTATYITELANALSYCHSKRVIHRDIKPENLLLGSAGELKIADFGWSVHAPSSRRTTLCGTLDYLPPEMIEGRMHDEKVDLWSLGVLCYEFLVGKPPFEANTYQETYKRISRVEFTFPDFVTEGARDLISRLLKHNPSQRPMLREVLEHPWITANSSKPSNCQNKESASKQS
Description: Compounds were screened for their ability to inhibit Aurora-2 using a standard coupled enzyme assay (Fox et al., Protein Sci., (1998) 7, 2249). Assays were carried out in a mixture of 100 mM Hepes (pH7.5), 10 mM MgCl2, 1 mM DTT, 25 mM NaCl, 2.5 mM phosphoenolpyruvate, 300 μM NADH, 30 μg/ml pyruvate kinase and 10 μg/ml lactate dehydrogenase. Final substrate concentrations in the assay were 400 μM ATP (Sigma Chemicals) and 570 μM peptide (Kemptide, American Peptide, Sunnyvale, Calif.). Assays were carried out at 30° C. and in the presence of 40 nM Aurora-2.
An assay stock buffer solution was prepared containing all of the reagents listed above, with the exception of Aurora-2 and the test compound of interest. 55 μl of the stock solution was placed in a 96 well plate followed by addition of 2 μl of DMSO stock containing serial dilutions of the test compound (typically starting from a final concentration of 7.5 μM). The plate was preincubated for 10 minutes at 30° C. and the reaction initiated by addition of 10 μl of Aurora-2. Initial reaction rates were determined with a Molecular Devices SpectraMax Plus plate reader over a 10 minute time course. IC50 and Ki data were calculated from non-linear regression analysis using the Prism software package (GraphPad Prism version 3.0cx for Macintosh, GraphPad Software, San Diego Calif., USA).

Colo205 cells = experiment: Analysis of Cell Proliferation, 3H thymidine incorporation; format: cell-based; conditions: Homo sapiens
Description: Compounds were screened for their ability to inhibit cell proliferation using Colo205 cells obtained from ECACC and using the assay shown below.
Colo205 cells were seeded in 96 well plates and serially diluted compound was added to the wells in duplicate. Control groups included untreated cells, the compound diluent (0.1% DMSO alone) and culture medium without cells. The cells were then incubated for 72 or 96 hrs at 37C in an atmosphere of 5% CO2/95% humidity.
To measure proliferation, 3 h prior to the end of the experiment 0.5 μCi of 3H thymidine was added to each well. Cells were then harvested and the incorporated radioactivity counted on a Wallac microplate beta-counter. Dose response curves were calculated using either Prism 3.0 (GraphPad) or SoftMax Pro 4.3.1 LS (Molecular Devices) software.

[1] = biological target: N-terminally truncated (Δ 27) Abl kinase (Homo sapiens, UniProt P00519); experiment: Abl Kinase Activity Inhibition Assay, coupled enzyme system; format: biochemical; conditions: 110 μM ATP, 30° C.
Chain of N-terminally truncated (Δ 27) Abl kinase (P00519 whole entry, stated change not applied, the tested form may be a part): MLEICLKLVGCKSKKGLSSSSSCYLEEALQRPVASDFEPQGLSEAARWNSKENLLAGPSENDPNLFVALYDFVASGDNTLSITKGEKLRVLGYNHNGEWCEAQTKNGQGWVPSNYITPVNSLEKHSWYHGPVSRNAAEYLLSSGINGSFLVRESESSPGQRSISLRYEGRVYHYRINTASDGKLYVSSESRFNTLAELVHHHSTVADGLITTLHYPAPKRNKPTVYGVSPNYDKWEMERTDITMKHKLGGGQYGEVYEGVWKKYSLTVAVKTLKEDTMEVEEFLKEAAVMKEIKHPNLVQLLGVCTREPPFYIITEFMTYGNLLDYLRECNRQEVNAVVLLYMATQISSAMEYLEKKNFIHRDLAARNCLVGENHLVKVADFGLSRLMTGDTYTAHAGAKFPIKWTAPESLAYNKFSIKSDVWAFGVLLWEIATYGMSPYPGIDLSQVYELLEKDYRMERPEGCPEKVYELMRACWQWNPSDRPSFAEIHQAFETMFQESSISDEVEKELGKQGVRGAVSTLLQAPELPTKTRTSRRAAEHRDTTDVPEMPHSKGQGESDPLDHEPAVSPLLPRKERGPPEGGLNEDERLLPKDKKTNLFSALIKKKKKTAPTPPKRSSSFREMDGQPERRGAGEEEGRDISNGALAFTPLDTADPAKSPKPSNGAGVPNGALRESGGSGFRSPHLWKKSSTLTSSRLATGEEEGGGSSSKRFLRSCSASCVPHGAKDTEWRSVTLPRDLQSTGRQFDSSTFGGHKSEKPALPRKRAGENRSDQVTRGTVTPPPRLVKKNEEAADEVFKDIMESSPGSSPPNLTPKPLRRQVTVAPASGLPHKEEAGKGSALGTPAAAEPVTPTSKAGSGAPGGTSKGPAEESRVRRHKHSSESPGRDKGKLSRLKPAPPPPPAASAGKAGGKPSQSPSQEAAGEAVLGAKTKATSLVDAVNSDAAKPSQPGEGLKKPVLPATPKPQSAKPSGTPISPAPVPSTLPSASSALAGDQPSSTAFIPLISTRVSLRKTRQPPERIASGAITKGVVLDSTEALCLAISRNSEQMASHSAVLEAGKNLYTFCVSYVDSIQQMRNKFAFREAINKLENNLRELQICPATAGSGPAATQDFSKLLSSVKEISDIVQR
Description: Compounds were screened for their ability to inhibit N-terminally truncated (Δ 27) Abl kinase activity using a standard coupled enzyme system (Fox et al., Protein Sci., 7, pp. 2249 (1998)). Reactions were carried out in a solution containing 100 mM HEPES (pH 7.5), 10 mM MgCl2, 25 mM NaCl, 300 μM NADH, 1 mM DTT and 3% DMSO. Final substrate concentrations in the assay were 110 μM ATP (Sigma Chemicals, St Louis, Mo.) and 70 μM peptide (EAIYAAPFAKKK, American Peptide, Sunnyvale, Calif.). Reactions were carried out at 30° C. and 21 nM Abl kinase. Final concentrations of the components of the coupled enzyme system were 2.5 mM phosphoenolpyruvate, 200 μM NADH, 60 μg/ml pyruvate kinase and 20 μg/ml lactate dehydrogenase.
An assay stock buffer solution was prepared containing all of the reagents listed above with the exception of ATP and the test compound of interest. The assay stock buffer solution (60 μl) was incubated in a 96 well plate with 2 μl of the test compound of interest at final concentrations typically spanning 0.002 μM to 30 μM at 30° C. for 10 min. Typically, a 12 point titration was prepared by serial dilutions (from 1 mM compound stocks) with DMSO of the test compounds in daughter plates. The reaction was initiated by the addition of 5 μl of ATP (final concentration 110 μM). Rates of reaction were obtained using a Molecular Devices Spectramax plate reader (Sunnyvale, Calif.) over 10 min at 30° C. The Ki values were determined from the residual rate data as a function of inhibitor concentration using nonlinear regression (Prism 3.0, Graphpad Software, San Diego, Calif.).

Aurora-1 (Aurora B) = Aurora-1 (Aurora B) (Homo sapiens, UniProt Q96GD4); experiment: Aurora-1 (Aurora B) Inhibition Assay (radiometric); format: biochemical; conditions: 800 μM ATP; read-out: Aurora B kinase activity Ki
Chain of Aurora-1 (Aurora B) (Q96GD4 whole entry): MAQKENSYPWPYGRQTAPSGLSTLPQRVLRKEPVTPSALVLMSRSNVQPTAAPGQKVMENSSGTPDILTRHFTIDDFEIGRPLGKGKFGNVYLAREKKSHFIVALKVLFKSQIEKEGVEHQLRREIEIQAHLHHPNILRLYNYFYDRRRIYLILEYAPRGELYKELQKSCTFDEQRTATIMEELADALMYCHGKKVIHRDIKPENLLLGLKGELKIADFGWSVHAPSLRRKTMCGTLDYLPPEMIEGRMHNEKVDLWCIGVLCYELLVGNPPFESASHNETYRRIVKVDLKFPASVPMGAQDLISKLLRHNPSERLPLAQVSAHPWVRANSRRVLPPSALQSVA
Description: An assay buffer solution was prepared which consisted of 25 mM HEPES (pH 7.5), 10 mM MgCl2, 0.1% BSA and 10% glycerol. A 22 nM Aurora-B solution, also containing 1.7 mM DTT and 1.5 mM Kemptide (LRRASLG), was prepared in assay buffer. To 22 μL of the Aurora-B solution, in a 96-well plate, was added 2 μl of a compound stock solution in DMSO and the mixture allowed to equilibrate for 10 minutes at 25° C. The enzyme reaction was initiated by the addition of 16 μl stock [γ-^33P]-ATP Pi-ATP solution (˜20 nCi/μL) prepared in assay buffer, to a final assay concentration of 800 μM. The reaction was stopped after 3 hours by the addition of 16 μL 500 mM phosphoric acid and the levels of ^33P incorporation into the peptide substrate were determined by the following method.
A phosphocellulose 96-well plate (Millipore, Cat no. MAPHNOB50) was pre-treated with 100 μL of a 100 mM phosphoric acid prior to the addition of the enzyme reaction mixture (40 μL). The solution was left to soak on to the phosphocellulose membrane for 30 minutes and the plate subsequently washed four times with 200 μL of a 100 mM phosphoric acid. To each well of the dry plate was added 30 μL of Optiphase ‘SuperMix’ liquid scintillation cocktail (Perkin Elmer) prior to scintillation counting (1450 Microbeta Liquid Scintillation Counter, Wallac). Levels of non-enzyme catalyzed background radioactivity were determined by adding 16 μL of the 500 mM phosphoric acid to control wells, containing all assay components (which acts to denature the enzyme), prior to the addition of the [γ-^33P]-ATP solution. Levels of enzyme catalyzed ^33P incorporation were calculated by subtracting mean background counts from those measured at each inhibitor concentration. For each Ki determination 8 data points, typically covering the concentration range 0-10 μM compound, were obtained in duplicate (DMSO stocks were prepared from an initial compound stock of 10 mM with subsequent 1:2.5 serial dilutions). Ki values were calculated from initial rate data by non-linear regression using the Prism software package (Prism 3.0, Graphpad Software, San Diego, Calif.).

[2] = COLO 205, 96 h, 96 hours, read-out: IC50 cell proliferation after 96 hours
[3] = COLO 205, 72 h, 72 hours, read-out: IC50 cell proliferation after 72 hours

SMILES	Ki (Aurora-2 (Aurora A))	IC50 (Colo205 cells; [2])	Ki [1]	Ki (Aurora-1 (Aurora B))	IC50 (Colo205 cells; [3])
Cc1cnc(Nc2cc(N3CC[C@H](O)C3)nc(Sc3ccc(NC(=O)C4CC4)cc3)n2)s1 [Compound I-12]	≤ 0.01 µM	0.05 to 0.2 µM	0.025 to 0.1 µM	–	–
Cc1cnc(Nc2cc(N3CCC(N4CCOCC4)CC3)nc(Sc3ccc(NC(=O)C4CC4)cc3)n2)s1 [Compound I-4]	≤ 0.01 µM	–	< 0.025 µM	–	–
CCC(=O)Nc1ccc(Sc2nc(Nc3cc(C)n[nH]3)cc(N3CC[C@@H](N(C)C)C3)n2)cc1 [Compound I-24]	≤ 0.01 µM	0.05 to 0.2 µM	< 0.025 µM	–	–
CCC(=O)Nc1ccc(Sc2nc(Nc3cc(C)n[nH]3)cc(N3CCC(N4CCCC4(C)C)CC3)n2)cc1 [Compound I-33]	≤ 0.01 µM	0.05 to 0.2 µM	–	0.01 to 0.05 µM	–
Cc1cc(Nc2cc(N3CCC4(CCN(C)C4)CC3)nc(Sc3ccc(NC(=O)C4CC4)cc3F)n2)[nH]n1 [Compound I-54]	≤ 0.01 µM	≤ 0.05 µM	–	0.01 to 0.05 µM	–
CCC(=O)Nc1ccc(Sc2nc(Nc3ncc(C)s3)cc(N3CCC(N4CCCC4)CC3)n2)cc1 [Compound I-49]	≤ 0.01 µM	≤ 0.05 µM	–	0.01 to 0.05 µM	–
Cc1cnc(Nc2cc(N3CCC(N4CCN(C)CC4)CC3)nc(Sc3ccc(NC(=O)CC(F)(F)F)cc3)n2)s1 [Compound I-66]	≤ 0.01 µM	–	–	0.01 to 0.05 µM	≤ 0.025 µM
CCC(=O)Nc1ccc(Sc2nc(Nc3cc(C)n[nH]3)cc(N3CCC(C(C)(C)OC)CC3)n2)cc1 [Compound I-45]	≤ 0.01 µM	≤ 0.05 µM	–	0.01 to 0.05 µM	–
CCC(=O)Nc1ccc(Sc2nc(Nc3cc(C)n[nH]3)cc(N3CCC(O)(CC)CC3)n2)cc1 [Compound I-44]	≤ 0.01 µM	≤ 0.05 µM	–	0.01 to 0.05 µM	–
CO[C@H]1CCN(c2cc(Nc3ncc(C)s3)nc(Sc3ccc(NC(=O)C4CC4)cc3)n2)C1 [Compound I-14]	≤ 0.01 µM	0.05 to 0.2 µM	–	0.01 to 0.05 µM	–
CCC(=O)Nc1ccc(Sc2nc(Nc3cc(C)[nH]n3)cc(N3CCC(=O)CC3)n2)cc1 [Compound I-17]	≤ 0.01 µM	0.05 to 0.2 µM	–	0.01 to 0.05 µM	–
Cc1cnc(Nc2cc(N3CC4CCCNC4C3)nc(Sc3ccc(NC(=O)C4CC4)cc3)n2)s1 (centres unmarked) [Compound I-59]	≤ 0.01 µM	≤ 0.05 µM	–	0.01 to 0.05 µM	≤ 0.025 µM
Cc1cc(Nc2cc(N3CCC(N4CCOCC4)CC3)nc(Sc3ccc(NC(=O)C4CC4(F)F)cc3)n2)[nH]n1 (centres unmarked) [Compound I-75]	≤ 0.01 µM	–	–	0.01 to 0.05 µM	0.025 to 0.125 µM
Cc1cc(Nc2cc(N3CCC(F)C3)nc(Sc3ccc(NC(=O)c4ccccc4Cl)cc3)n2)[nH]n1 (centres unmarked) [Compound I-35]	≤ 0.01 µM	0.05 to 0.2 µM	–	≤ 0.01 µM	–
CCC(=O)Nc1ccc(Sc2nc(Nc3cc(C)n[nH]3)cc(N3CCC(N4CCOCC4)CC3)n2)cc1 [Compound I-40]	≤ 0.01 µM	≤ 0.05 µM	–	0.01 to 0.05 µM	–
Cc1cc(Nc2cc(N3CCC(N4CCN(C)CC4)CC3)nc(Sc3ccc(NC(=O)C4(C(F)(F)F)CC4)cc3)n2)[nH]n1 [Compound I-64]	≤ 0.01 µM	–	–	0.01 to 0.05 µM	≤ 0.025 µM
CCC(=O)Nc1ccc(Sc2nc(Nc3cc(C)n[nH]3)cc(N3CCC(N4CCC(F)C4)CC3)n2)cc1 (centres unmarked) [Compound I-43]	≤ 0.01 µM	≤ 0.05 µM	–	0.01 to 0.05 µM	–
Cc1cc(Nc2cc(N3CCC(F)C3)nc(Sc3ccc(NC(=O)CC(F)(F)F)cc3)n2)[nH]n1 (centres unmarked) [Compound I-78]	–	–	< 0.025 µM	–	–
CCC(=O)Nc1ccc(Sc2nc(Nc3cc(C)n[nH]3)cc(N3CC[C@@H](NC)C3)n2)cc1 [Compound I-9]	≤ 0.01 µM	0.05 to 0.2 µM	–	0.01 to 0.05 µM	–
CCC(=O)Nc1ccc(Sc2nc(Nc3cc(C4CC4)n[nH]3)cc(N3CCC(N4CCCC4)CC3)n2)cc1 [Compound I-56]	≤ 0.01 µM	≤ 0.05 µM	–	0.01 to 0.05 µM	≤ 0.025 µM
Cc1cc(Nc2cc(N3CCC(N4CCCC4)CC3)nc(Sc3ccc(NC(=O)CC4CCCC4)cc3)n2)n[nH]1 [Compound I-77]	≤ 0.01 µM	–	–	0.01 to 0.05 µM	0.025 to 0.125 µM
CCC(=O)Nc1ccc(Sc2nc(Nc3cc(C)n[nH]3)cc(N3CCC(N(C)C(C)(C)C)CC3)n2)cc1 [Compound I-47]	≤ 0.01 µM	≤ 0.05 µM	–	0.01 to 0.05 µM	–
CCC(=O)Nc1ccc(Sc2nc(Nc3cc(C)n[nH]3)cc(N3CCC(O)(C(C)C)CC3)n2)cc1 [Compound I-58]	≤ 0.01 µM	≤ 0.05 µM	–	0.01 to 0.05 µM	–
Cc1cc(Nc2cc(N3CCC(F)C3)nc(Sc3ccc(NC(=O)c4ccccc4C(F)(F)F)cc3)n2)[nH]n1 (centres unmarked) [Compound I-76]	≤ 0.01 µM	–	–	≤ 0.01 µM	0.025 to 0.125 µM
CCC(=O)Nc1ccc(Sc2nc(Nc3cc(C4CC4)n[nH]3)cc(N3CCC(F)C3)n2)cc1 (centres unmarked) [Compound I-20]	≤ 0.01 µM	0.05 to 0.2 µM	–	≤ 0.01 µM	–
Cc1cc(Nc2cc(N3CCC4(CCN(C)C4)CC3)nc(Sc3ccc(NC(=O)C4CC4)c(F)c3)n2)[nH]n1 [Compound I-32]	≤ 0.01 µM	0.05 to 0.2 µM	–	≤ 0.01 µM	–
